Measured values from patent US11279733B2, “Peptide antibiotics” (priority 2017, dated 2022).
In brackets after ≈: the same amount, converted by molar mass. Read-outs that look alike come from different tables or passages of the source. Starred links: 1 amine or outer side, 2 acyl side, 3 side chain; linkers in the order of their positions; H or OH if unused. Positions of bridges follow the written chain, without caps; N, C: chain ends. Non-standard residues stand in square brackets, D forms with d. Residues, ends and D or L forms follow the SMILES beside them. *: point of attachment. Decanoyl(3R-OH) = CCCCCCC[C@@H](O)CC(=O)*; Phe(4-NH2) = Nc1ccc(C[C@H](N)C(=O)O)cc1; azaLeu = CC(C)CN(N[*:1])C(=O)[*:2]; X4 = CCCCCOc1ccc(C(=O)*)cc1; Decanoyl = CCCCCCCCCC(=O)*; dDab = NCC[C@@H](N)C(=O)O; dDap = NC[C@@H](N)C(=O)O; Dab = NCC[C@H](N)C(=O)O

Key:
A. baumannii ATCC 19606 = settings: ATCC 19606
Description: (§1) Bacteria were either obtained from American Type Culture Collection (ATCC; Manassas, Va., USA) or independent academic clinical isolate collections, as listed in Table 18 below. Bacteria were cultured in Nutrient broth (NB; Bacto Laboratories, catalogue No. 234000) or Mueller Hinton broth (MHB; Bacto Laboratories, catalogue No. 211443) at 37° C. overnight with shaking (˜180 RPM). A sample of each culture was then diluted 50-fold in fresh MHB and incubated at 37° C. for 2-3 h with shaking (˜180 RPM). Compound stock solutions were prepared as 0.64 mg/mL or 2.56 mg/mL in water. The compounds, at twice the final desired concentration, were serially diluted 2-fold across the wells of 96-well plates (Polystyrene, Corning, catalogue No. 3370). Mid-log phase bacterial cultures (after 2-3 h incubation) were diluted to a final concentration of 1×10^6 colony forming units (CFU)/mL, and 50 μL was added to each well giving a final cell density of 5×10^5 and a compound concentration range of 32 μg/mL to 0.015 μg/mL (128-0.06 μg/mL against P. aeruginosa PA9704).

A. baumannii GN_093 PmxR = settings: GN 093 PmxR
Description: as §1

E. coli ATCC 25922 = settings: ATCC 25922
Description: as §1

K. pneumoniae ATCC 13883 = settings: ATCC 13883
Description: as §1

[1] = tested on: K. pneumoniae ATCC 700603, MDR; settings: ATCC 700603
Description: as §1

[2] = tested on: K. pneumoniae ATCC BAA-2146, NDM-1 pos; settings: ATCC BAA-2146
Description: as §1

[3] = tested on: K. pneumoniae GN_102 PmxR; settings: GN 102 PmxR
Description: as §1

[4] = tested on: K. pneumoniae GN_106, PmxR; settings: GN 106, PmxR
Description: as §1

P. aeruginosa ATCC 27853 = settings: ATCC 27853
Description: as §1

[5] = tested on: P. aeruginosa GN_043, PmxR
Description: as §1

[6] = tested on: P. aeruginosa GN_105, PmxR; settings: GN 105, PmxR
Description: as §1

[7] = tested on: S. aureus ATCC 25923, MSSA; settings: ATCC 25923
Description: as §1

Compound	MIC A. baumannii ATCC 19606 (A. baumannii ATCC 19606) [µg/mL]	MIC A. baumannii GN_093 PmxR (A. baumannii GN_093 PmxR) [µg/mL]	MIC E. coli ATCC 25922 (E. coli ATCC 25922) [µg/mL]	MIC K. pneumoniae ATCC 13883 (K. pneumoniae ATCC 13883) [µg/mL]	MIC K. pneumoniae ATCC 700603, MDR [1] [µg/mL]	MIC K. pneumoniae ATCC BAA-2146, NDM-1 pos [2] [µg/mL]	MIC K. pneumoniae GN_102 PmxR [3] [µg/mL]	MIC K. pneumoniae GN_106, PmxR [4] [µg/mL]	MIC P. aeruginosa ATCC 27853 (P. aeruginosa ATCC 27853) [µg/mL]	MIC P. aeruginosa GN_105, PmxR [6] [µg/mL]	MIC S. aureus ATCC 25923, MSSA [7] [µg/mL]	further results
CCCCCOc1ccc(C(=O)N[C@H](CCN)C(=O)N[C@H]2CCNC(=O)[C@H](CC(C)C)NC(=O)[C@H](CCN)NC(=O)[C@H](CCN)NC(=O)[C@H](CC(C)C)NC(=O)[C@@H](Cc3ccccc3)NC(=O)[C@H](CCN)NC2=O)cc1 [compound 6528, 4-(pentyloxy)benzoic acid-D-Dab-cyc[L-Dab-L-Dab-D-Phe-L-Leu-L-Dab-L-Dab-L-Leu]] (X4-[dDab][Dab][Dab][dF]L[Dab][Dab]L; lactam 2-C)	>32	32 (≈ 30.1 µM)	2 (≈ 1.88 µM)	8 (≈ 7.52 µM)	16 (≈ 15 µM)	8 (≈ 7.52 µM)	>32	32 (≈ 30.1 µM)	1 (≈ 0.94 µM)	4 (≈ 3.76 µM)	32 (≈ 30.1 µM)	MIC P. aeruginosa GN_043, PmxR [5]: 1 µg/mL (≈ 0.94 µM)
CCCCCCC[C@@H](O)CC(=O)N[C@H](CCN)C(=O)N[C@H]1CCNC(=O)[C@H](CC(C)C)NC(=O)[C@H](CCN)NC(=O)[C@H](CCN)NC(=O)N(CC(C)C)NC(=O)[C@@H](Cc2ccccc2)NC(=O)[C@H](CCN)NC1=O [compound 8803, 3(R)OH-nC9CO-D-Dab-cyc[L-Dab-L-DAB-D-Phe-azaLeu-L-Dab-L-Dab-L-Leu]] ({Decanoyl(3R-OH)}-[dDab][Dab][Dab][dF][azaLeu][Dab][Dab]L; lactam 2-C)	8 (≈ 7.65 µM)	–	2 (≈ 1.91 µM)	8 (≈ 7.65 µM)	8 (≈ 7.65 µM)	8 (≈ 7.65 µM)	–	–	4 (≈ 3.83 µM)	–	16 (≈ 15.3 µM)	MIC A. baumannii Cl Ptyela 10073 4512:2, PmxR (A. baumannii GN_093 PmxR): 32 µg/mL (≈ 30.6 µM); MIC K. pneumoniae Cl Koprana 10065 0661:1 PmxR [3]: 2 µg/mL (≈ 1.91 µM); MIC K. pneumoniae Cl 183-16357-20352, PmxR [4]: 4 µg/mL (≈ 3.83 µM); MIC, P. aeruginosa FADDI-PA070, PmxR ([5]; strain name as in Table 11): 1 µg/mL (≈ 0.957 µM); MIC P. aeruginosa PA9704, PmxR [6]: 2 µg/mL (≈ 1.91 µM)
CCCCCCC[C@@H](O)CC(=O)N[C@H](CN)C(=O)N[C@H]1CCNC(=O)[C@H](CC(C)C)NC(=O)[C@H](CCN)NC(=O)[C@H](CCN)NC(=O)[C@H](CC(C)C)NC(=O)[C@@H](CC(C)C)NC(=O)[C@H](CCN)NC1=O [compound 8977, nC10-3(R)OH-D-Dap-(L-Dab-L-Dab-D-Leu-L-Leu-L-Dab-L-Dab-L-Leu)] ({Decanoyl(3R-OH)}-[dDap][Dab][Dab][dL]L[Dab][Dab]L; lactam 2-C)	8 (≈ 8.03 µM)	2 (≈ 2.01 µM)	4 (≈ 4.01 µM)	8 (≈ 8.03 µM)	4 (≈ 4.01 µM)	8 (≈ 8.03 µM)	2 (≈ 2.01 µM)	4 (≈ 4.01 µM)	4 (≈ 4.01 µM)	2 (≈ 2.01 µM)	32 (≈ 32.1 µM)	MIC P. aeruginosa GN_043, PmxR ([5]; P. aeruginosa GN_043, PmxR): 2 µg/mL (≈ 2.01 µM)
CCCCCCC[C@@H](O)CC(=O)N[C@H](Cc1c[nH]c2ccccc12)C(=O)N[C@H]1CCNC(=O)[C@H](CC(C)C)NC(=O)[C@H](CCN)NC(=O)[C@H](CCN)NC(=O)[C@H](CC(C)C)NC(=O)[C@@H](Cc2ccccc2)NC(=O)[C@H](CCN)NC1=O [compound 6441, 3(R)OH-nC9CO-D-Trp-cyc[L-Dab-L-Dab-D-Phe-L-Leu-L-Dab-L-Dab-L-Leu]] ({Decanoyl(3R-OH)}-[dW][Dab][Dab][dF]L[Dab][Dab]L; lactam 2-C)	–	32 (≈ 28.3 µM)	–	–	–	–	8 (≈ 7.08 µM)	4 (≈ 3.54 µM)	–	16 (≈ 14.2 µM)	–	MIC, A. baumannii ATCC 19606 (A. baumannii ATCC 19606): 16 µg/mL (≈ 14.2 µM); MIC, E. coli ATCC 25922 (E. coli ATCC 25922): 16 µg/mL (≈ 14.2 µM); MIC, K. pneumoniae ATCC 13883 (K. pneumoniae ATCC 13883): 16 µg/mL (≈ 14.2 µM); MIC, K. pneumoniae ATCC 700603, MDR [1]: 8 µg/mL (≈ 7.08 µM); MIC, K. pneumoniae ATCC BAA-2146, NDM-1 pos [2]: 8 µg/mL (≈ 7.08 µM); MIC, P. aeruginosa ATCC 27853 (P. aeruginosa ATCC 27853): 16 µg/mL (≈ 14.2 µM); MIC P. aeruginosa GN_043, PmxR ([5]; Table 6, polymyxin-resistant): 8 µg/mL (≈ 7.08 µM); MIC, S. aureus ATCC 25923, MSSA [7]: 8 µg/mL (≈ 7.08 µM)
CCCCCCC[C@@H](O)CC(=O)N[C@H](CCN)C(=O)N[C@H]1CCNC(=O)[C@H](CC(C)C)NC(=O)[C@H](Cc2ccc(N)cc2)NC(=O)[C@H](CCN)NC(=O)[C@H](CC(C)C)NC(=O)[C@@H](Cc2ccccc2)NC(=O)[C@H](CCN)NC1=O [compound 8644, 3(R)OH-nC9CO-D-Dab-cyc[L-Dab-L-DAB-D-Phe-L-Leu-L-Dab-L-4NH2Phe-L-Leu]] ({Decanoyl(3R-OH)}-[dDab][Dab][Dab][dF]L[Dab][Phe(4-NH2)]L; lactam 2-C)	16 (≈ 14.5 µM)	>32	16 (≈ 14.5 µM)	8 (≈ 7.23 µM)	8 (≈ 7.23 µM)	4 (≈ 3.62 µM)	2 (≈ 1.81 µM)	8 (≈ 7.23 µM)	8 (≈ 7.23 µM)	8 (≈ 7.23 µM)	32 (≈ 28.9 µM)	MIC P. aeruginosa GN_043, PmxR ([5]; polymyxin-resistant): 8 µg/mL (≈ 7.23 µM)
CC(=O)N[C@H](CCN)C(=O)N[C@H]1CCNC(=O)[C@H](Cc2c[nH]c3ccccc23)NC(=O)[C@H](CCN)NC(=O)[C@H](CCN)NC(=O)[C@H](CC(C)C)NC(=O)[C@@H](Cc2ccccc2)NC(=O)[C@H](CCN)NC1=O [compound 8981, Ac-D-Dab-cyc[L-Dab-L-Dab-D-Phe-L-Leu-L-Dab-L-Dab-L-Trp]] (Ac-[dDab][Dab][Dab][dF]L[Dab][Dab]W; lactam 2-C)	>32	32 (≈ 32.3 µM)	32 (≈ 32.3 µM)	>32	16 (≈ 16.2 µM)	16 (≈ 16.2 µM)	>32	>32	4 (≈ 4.04 µM)	>32	>32	–
CCCCCCCCCC(=O)N[C@@H](CCN)C(=O)N[C@H]1CCNC(=O)[C@H](CC(C)C)NC(=O)[C@H](CCN)NC(=O)[C@H](CCN)NC(=O)[C@H](CC(C)C)NC(=O)[C@@H](Cc2ccccc2)NC(=O)[C@H](CCN)NC1=O [compound 5568, nC9CO-L-Dab-cyc[L-Dab-L-Dab-D-Phe-L-Leu-L-Dab-L-Dab-L-Leu]] (Decanoyl-[Dab][Dab][Dab][dF]L[Dab][Dab]L; lactam 2-C)	–	>32	–	–	–	–	–	16 (≈ 15.6 µM)	–	4 (≈ 3.89 µM)	–	MIC, A. baumannii ATCC 19606 (A. baumannii ATCC 19606): 16 µg/mL (≈ 15.6 µM); MIC, E. coli ATCC 25922 (E. coli ATCC 25922): 8 µg/mL (≈ 7.78 µM); MIC, K. pneumoniae ATCC 13883 (K. pneumoniae ATCC 13883): 4 µg/mL (≈ 3.89 µM); MIC, K. pneumoniae ATCC 700603, MDR [1]: 8 µg/mL (≈ 7.78 µM); MIC, K. pneumoniae ATCC BAA-2146, NDM-1 pos [2]: 8 µg/mL (≈ 7.78 µM); MIC, P. aeruginosa ATCC 27853 (P. aeruginosa ATCC 27853): 4 µg/mL (≈ 3.89 µM); MIC P. aeruginosa GN_043, PmxR ([5]; Table 6, polymyxin-resistant): 4 µg/mL (≈ 3.89 µM); MIC, S. aureus ATCC 25923, MSSA [7]: 8 µg/mL (≈ 7.78 µM)
